Article PMC5607274, “An iterative compound screening contest method for identifying target protein inhibitors using the tyrosine-protein kinase Yes” (Scientific Reports, 2017)

Biological target: T1, human recombinant Yes [a.a. 2–543 (end)] (Homo sapiens, UniProt P07947)
T1 construct: human recombinant Yes [a.a; 2–543 (end)]; purchased BPS Bioscience 40488
Assay: ADP-Glo kinase assay, inhibition rates of Yes phosphorylation activity (first and second screening)
Type: biochemical
Conditions: first screening; mean of n = 4 wells; 10 μmol L−1 compound
Summary of the method: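 ADP-Glo luminescence measured inhibition of human recombinant Yes (a.a. 2–543) phosphorylation activity. In the first screen, each compound ran in 4 wells and inhibition rates were averaged. The second screen retested hits as compounds dissolved from fresh powder.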

T1 sequence (P07947 2-543): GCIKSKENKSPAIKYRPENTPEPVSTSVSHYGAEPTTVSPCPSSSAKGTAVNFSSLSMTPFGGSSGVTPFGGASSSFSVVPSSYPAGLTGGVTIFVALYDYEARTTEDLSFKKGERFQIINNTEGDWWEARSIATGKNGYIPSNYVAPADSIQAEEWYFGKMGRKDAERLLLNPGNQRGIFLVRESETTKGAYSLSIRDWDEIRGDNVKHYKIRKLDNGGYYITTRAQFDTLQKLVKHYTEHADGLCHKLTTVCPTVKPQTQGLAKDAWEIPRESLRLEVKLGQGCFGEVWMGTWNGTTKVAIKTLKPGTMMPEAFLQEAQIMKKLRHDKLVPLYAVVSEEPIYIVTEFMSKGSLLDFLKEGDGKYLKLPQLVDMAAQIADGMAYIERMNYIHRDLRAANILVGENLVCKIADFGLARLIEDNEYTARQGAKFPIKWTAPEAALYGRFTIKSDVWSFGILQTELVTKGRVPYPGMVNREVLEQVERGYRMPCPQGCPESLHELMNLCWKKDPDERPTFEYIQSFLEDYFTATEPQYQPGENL

Structure (SMILES)	First screening IR (inhibition rate) [%]
Cc1ccccc1/C=C1/CC(C)Cc2c1nc1ccccc1c2C(=O)O (stereo not drawn) [Compound Z46107859]	-3
CC1C/C(=C/c2ccc(C#N)cc2)c2nc3ccccc3c(C(=O)O)c2C1 (stereo not drawn) [Compound Z46107862]	-2
CNc1ccc(/C=C2/CC(C)Cc3c2nc2ccccc2c3C(=O)O)cc1[N+](=O)[O-] (stereo not drawn) [Compound Z46108034]	11
COc1cc(/C=C2/CC(C)Cc3c2nc2ccccc2c3C(=O)O)cc(Cl)c1O (stereo not drawn) [Compound Z46108144]	3
CC(C)(C)C1C/C(=C/c2ccc3c(c2)OCO3)c2nc3ccccc3c(C(=O)O)c2C1 (stereo not drawn) [Compound Z46108733]	8
CC(=O)Nc1ccc(/C=C2/CC(C(C)(C)C)Cc3c2nc2ccccc2c3C(=O)O)cc1 (stereo not drawn) [Compound Z46108738]	26
COC(=O)c1ccc(COc2ccc(/C=C3/CC(C(C)(C)C)Cc4c3nc3ccccc3c4C(=O)O)cc2OC)cc1 (stereo not drawn) [Compound Z46108841]	15
CN1C/C(=C/c2ccc3c(c2)OCO3)c2nc3ccccc3c(C(=O)O)c2C1 [Compound Z46114673]	-9
CN1C/C(=C/c2ccc(F)cc2)c2nc3ccccc3c(C(=O)O)c2C1 [Compound Z46114693]	-2
CN1C/C(=C/c2cccc(Br)c2)c2nc3ccccc3c(C(=O)O)c2C1 [Compound Z46114695]	-9
COc1ccc(/C=C2/CN(C)Cc3c2nc2ccccc2c3C(=O)O)cc1 [Compound Z46114702]	-7
CCc1ccc(/C=C2/CN(C)Cc3c2nc2ccccc2c3C(=O)O)cc1 [Compound Z46114754]	0
CCC(C)(C)C1C/C(=C/c2ccc(C(C)C)cc2)c2nc3ccccc3c(C(=O)O)c2C1 (stereo not drawn) [Compound Z46116606]	13
CCC(C)(C)C1C/C(=C/c2cc(Br)c(O)c(OC)c2)c2nc3ccccc3c(C(=O)O)c2C1 (stereo not drawn) [Compound Z46116622]	5
CCC(C)(C)C1C/C(=C\c2c(Cl)cccc2Cl)c2nc3ccccc3c(C(=O)O)c2C1 (stereo not drawn) [Compound Z46116634]	45
CCC(C)(C)C1C/C(=C/c2ccccc2Br)c2nc3ccccc3c(C(=O)O)c2C1 (stereo not drawn) [Compound Z46116650]	23
CCC(C)(C)C1C/C(=C/c2ccc(Sc3nncn3C)c([N+](=O)[O-])c2)c2nc3ccccc3c(C(=O)O)c2C1 (stereo not drawn) [Compound Z46116775]	11
CCN1C/C(=C/c2ccc(F)cc2)c2nc3ccccc3c(C(=O)O)c2C1 [Compound Z46146538]	5
COc1ccccc1N1CCN(Cc2csc(NC(C)=O)n2)CC1 [Compound Z46164581]	3
CCOc1ccc(NC(=O)c2ccccc2NC(=O)CN2CCOCC2)cc1 [Compound Z46179735]	14
CCN(C(=O)CN1CCN(Cc2ccc3c(c2)OCO3)CC1)c1c(N)n(Cc2ccccc2)c(=O)[nH]c1=O [Compound Z46204583]	4
O=C(CN1CCN(S(=O)(=O)c2cccc(Cl)c2Cl)CC1)NC1CCCCCC1 [Compound Z46278335]	-12
CCN(CC(=O)N1N=C(c2ccc(OC)cc2)CC1c1ccco1)Cc1nc2ccccc2c(=O)[nH]1 (stereo not drawn) [Compound Z46301463]	-6
CN(CCS(=O)(=O)c1cc(Cl)ccc1Cl)Cc1nc2ccccc2c(=O)[nH]1 [Compound Z46302626]	-9
Cc1ccc(C)c(S(=O)(=O)CCN(C)Cc2nc3ccccc3c(=O)[nH]2)c1 [Compound Z46302631]	-9
CN(CC(=O)N1CCc2ccccc2C1)Cc1nc2ccccc2c(=O)[nH]1 [Compound Z46302902]	-12
CCOC(=O)c1c(-c2ccc(OC)cc2)csc1NC(=O)CN1CCN(c2cccc(OC)c2)CC1 [Compound Z46356995]	9
